In the supplement of paper PMC10307832:

Assays:
Experiment in all cases: relative viability (nuclei count vs DMSO), 5 days (fraction); higher = more cells survive
[1] = compound: Cc1ccc(F)c(NC(=O)Nc2ccc(-c3cccc4[nH]nc(N)c34)cc2)c1 [Linifanib] + C[C@@H](Oc1cc(-c2cnn(C3CCNCC3)c2)cnc1N)c1c(Cl)ccc(F)c1Cl [Crizotinib] (partner 1 µM)
How it was run: (§1)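 Values are medians from duplicate plates. Each reflects relative viability, defined as the nuclei count of treated wells over that of vehicle wells. Lung cancer cell lines in 1536-well plates were pin-tool dosed one day after seeding with one drug alone or with a fixed anchor-drug dose plus five library-drug doses (not always all listed) in √10 steps, then fixed, stained and imaged at 4× after 5 days.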

[2] = compound: Cc1ccc(F)c(NC(=O)Nc2ccc(-c3cccc4[nH]nc(N)c34)cc2)c1 [Linifanib] + NC(=O)Nc1cc(-c2cccc(F)c2)sc1C(=O)N[C@H]1CCCNC1 [AZD7762] (partner 0.2 µM)
How it was run: as §1

[3] = compound: Cc1ccc(F)c(NC(=O)Nc2ccc(-c3cccc4[nH]nc(N)c34)cc2)c1 [Linifanib] + Nc1nc2[nH]cc(CCc3ccc(C(=O)N[C@@H](CCC(=O)O)C(=O)O)cc3)c2c(=O)[nH]1 [Pemetrexed] (partner 0.2 µM)
How it was run: as §1

[4] = compound: Cc1ccc(F)c(NC(=O)Nc2ccc(-c3cccc4[nH]nc(N)c34)cc2)c1 [Linifanib] + CCNC(=O)c1noc(-c2cc(C(C)C)c(O)cc2O)c1-c1ccc(CN2CCOCC2)cc1 [Luminespib] (partner 0.01 µM)
How it was run: as §1

[5] = compound: Cc1ccc(F)c(NC(=O)Nc2ccc(-c3cccc4[nH]nc(N)c34)cc2)c1 [Linifanib] + O=C(CCCCCCC(=O)Nc1ccccc1)NO [Vorinostat] (partner 1 µM)
How it was run: as §1

[6] = compound: Cc1ccc(F)c(NC(=O)Nc2ccc(-c3cccc4[nH]nc(N)c34)cc2)c1 [Linifanib] + CC1(C)CCC(c2ccc(Cl)cc2)=C(CN2CCN(c3ccc(C(=O)NS(=O)(=O)c4ccc(N[C@H](CCN5CCOCC5)CSc5ccccc5)c(S(=O)(=O)C(F)(F)F)c4)cc3)CC2)C1 [Navitoclax] (partner 0.5 µM)
How it was run: as §1

Row | Cell Line | relative viability ([1]; first compound 0.03162 µM) | relative viability ([1]; first compound 0.1 µM) | relative viability ([1]; first compound 0.3162 µM) | relative viability ([2]; first compound 0.03162 µM) | relative viability ([2]; first compound 0.1 µM) | relative viability ([2]; first compound 0.3162 µM) | relative viability ([3]; first compound 0.03162 µM) | relative viability ([3]; first compound 0.1 µM) | relative viability ([3]; first compound 0.3162 µM) | relative viability ([4]; first compound 0.03162 µM) | relative viability ([4]; first compound 0.1 µM) | relative viability ([4]; first compound 0.3162 µM) | relative viability ([5]; first compound 0.03162 µM) | relative viability ([5]; first compound 0.1 µM) | relative viability ([5]; first compound 0.3162 µM) | relative viability ([6]; first compound 0.03162 µM) | relative viability ([6]; first compound 0.1 µM) | relative viability ([6]; first compound 0.3162 µM)
1 | NCI-H1651 | 0.834 | 0.929 | 0.831 | 0.428 | 0.483 | 0.544 | 0.648 | 0.612 | 0.561 | 0.945 | 0.748 | 0.797 | 0.688 | 0.561 | 0.573 | 0.91 | 1.24 | 0.999
2 | NCI-H2126 | 1.03 | 1.04 | 0.975 | 1.02 | 1.06 | 0.983 | 0.713 | 0.689 | 0.714 | 0.896 | 0.967 | 0.91 | 0.797 | 0.859 | 0.873 | 0.836 | 0.838 | 0.816
3 | LCLC-103H | 1.05 | 1.2 | 0.943 | 0.892 | 0.721 | 0.792 | 0.477 | 0.469 | 0.458 | 0.971 | 0.973 | 0.889 | 0.848 | 0.764 | 0.734 | – | – | –
4 | NCI-H358 | 0.502 | 0.762 | 0.51 | 0.667 | 0.495 | 0.574 | 0.168 | 0.166 | 0.155 | 0.366 | 0.374 | 0.416 | 0.72 | 0.723 | 0.803 | – | – | –
5 | NCI-H1793 | – | – | – | 0.269 | 0.844 | 0.541 | 0.939 | 1.17 | 1.07 | 0.169 | 0.173 | 0.199 | 0.777 | 0.796 | 0.745 | 0.553 | 0.429 | 0.444
6 | HCC-78 | 0.373 | 0.376 | 0.319 | 0.629 | 0.595 | 0.599 | 0.944 | 0.926 | 0.85 | – | – | – | 0.419 | 0.427 | 0.455 | 0.791 | 0.74 | 0.792
7 | HCC-366 | 0.558 | 0.69 | 0.454 | 0.181 | 0.243 | 0.221 | 0.159 | 0.15 | 0.139 | – | – | – | 0.371 | 0.378 | 0.359 | 1.12 | 1.11 | 0.874
8 | NCI-H520 | 0.799 | 1.09 | 0.757 | – | – | – | 0.629 | 0.696 | 0.635 | 0.171 | 0.204 | 0.226 | 0.669 | 0.769 | 0.643 | 1.02 | 1.1 | 1.05
9 | NCI-H661 | 1.12 | 1.23 | 0.906 | – | – | – | 0.932 | 0.925 | 0.904 | 0.922 | 0.907 | 0.926 | 0.792 | 0.751 | 0.75 | – | – | –
10 | NCI-H2228 | 0.496 | 0.508 | 0.453 | – | – | – | 0.325 | 0.355 | 0.319 | 0.15 | 0.155 | 0.17 | 0.794 | 0.808 | 0.603 | 0.994 | 1.01 | 0.8
11 | COR-L23 | 0.716 | 0.657 | 0.531 | – | – | – | 0.197 | 0.19 | 0.195 | 0.673 | 0.892 | 0.705 | 0.462 | 0.402 | 0.384 | 1.05 | 1.04 | 0.857
12 | NCI-H2009 | 1.07 | 1.08 | 0.526 | – | – | – | 1.08 | 0.989 | 0.917 | 1.03 | 1.05 | 0.965 | 0.695 | 0.781 | 0.743 | 1.13 | 1.14 | 1.13
13 | NCI-H1395 | – | – | – | 0.39 | 0.431 | 0.395 | 0.92 | 1.02 | 0.825 | 0.684 | 0.824 | 0.622 | 0.824 | 0.71 | 0.633 | 1.19 | 1.17 | 1.21
14 | NCI-H2342 | – | – | – | 0.506 | 0.506 | 0.625 | 0.791 | 0.832 | 0.769 | 0.736 | 0.766 | 0.613 | 0.825 | 0.771 | 0.734 | – | – | –
15 | NCI-H650 | 0.742 | 0.665 | 0.73 | 0.947 | 0.99 | 0.675 | 0.899 | 1.15 | 0.899 | 0.816 | 0.611 | 0.71 | 0.513 | 0.409 | 0.358 | – | – | –
16 | SW 900 | – | – | – | 0.523 | 0.656 | 0.533 | 0.495 | 0.496 | 0.481 | 0.168 | 0.172 | 0.153 | 0.57 | 0.603 | 0.485 | – | – | –
17 | SK-LU-1 | 1.03 | 0.958 | 0.864 | – | – | – | 0.794 | 1 | 0.966 | 0.195 | 0.181 | 0.227 | 0.74 | 0.749 | 0.828 | 0.783 | 0.893 | 0.791
18 | NCI-H2023 | 0.679 | 0.774 | 0.544 | – | – | – | 0.259 | 0.275 | 0.232 | 0.7 | 0.925 | 0.757 | 0.655 | 0.807 | 0.612 | 0.929 | 1.07 | 0.981
19 | SW 1573 | 0.784 | 0.91 | 0.74 | – | – | – | 0.857 | 0.879 | 0.777 | 0.162 | 0.26 | 0.253 | 0.909 | 0.93 | 0.594 | 1.03 | 1.28 | 0.897
20 | NCI-H727 | 1.01 | 1.01 | 0.725 | 0.602 | 0.62 | 0.358 | – | – | – | 0.312 | 0.292 | 0.358 | 1.29 | 1.18 | 1.09 | 0.407 | 0.402 | 0.415
